Reference: patent publication US8802713B2, “3-alkoxy-1-phenylpyrazole derivatives and pesticides” (Kumiai Chemical Industry Co., Ltd., priority 2007, dated 2014)
Read-outs that look alike come from different tables or passages of the source.

Key:
[1] = system: cotton aphid; test: Insecticidal test on cotton aphid (seedling dip); assay type: in vivo; settings: Aphis gossypii, in Cucumis sativus, 72 h
Protocol: A wettable powder prepared in accordance with Formulation Example 2 was diluted with water to a concentration of an active ingredient of 500 ppm. Cucumber seedlings which had been inoculated with larvae of cotton aphid were dipped in this solution and dried in air. The treated cucumber seedlings were placed in a thermostatic chamber at 25° C. for 3 days, and the live insects were counted for calculation of the mortality by Equation 2. The test was carried out by one series system.

[2] = system: diamondback moth; test: Insecticidal test on diamondback moth; assay type: in vivo; settings: Plutella xylostella, 144 h
Protocol: A wettable powder prepared in accordance with Formulation Example 2 was diluted with water to a concentration of an active ingredient of 500 ppm. Cabbage leaves were dipped in this solution and dried in air and then put in a plastic cup having a capacity of 60 mL. 10 second-instar larvae of diamondback moth were released in the cup and the cup was lidded. Then, the cup was placed in a thermostatic chamber at 25° C. for 6 days, and dead moths were counted for calculation of the mortality by Equation 2. The test was carried out by one series system.

[3] = system: brown rice planthopper; test: Insecticidal test on brown rice planthopper; assay type: in vivo; settings: 144 h
Protocol: A wettable powder prepared in accordance with Formulation Example 2 was diluted with water to a concentration of an active ingredient of 500 ppm. Rice sprouts were dipped in this solution and put in a plastic cup having a capacity of 60 mL. Ten third-instar larvae of brown rice planthopper were released in the cup, the cup was lidded and placed in a thermostatic chamber at 25° C. for 6 days, and the number of dead larvae were counted for calculation of the mortality by Equation 2. The test was carried out by one series system.

[4] = system: two-spotted spider mites; test: Miticidal test on two-spotted spider mites (seedling dip); assay type: in vivo, Tetranvchus urticae; settings: Glycine max, 312 h, read-out: protective value
Protocol: A wettable powder prepared in accordance with Formulation Example 2 was diluted with water to a concentration of an active ingredient of 500 ppm. Soybean seedlings which had been inoculated with imago two-spotted spider mites were dipped in the solution and dried in air. The treated soybean seedlings were placed in a thermostatic chamber at 25° C. for 13 days, and the number of live mites were assessed for calculation of the protective value by Equation 1. The test was carried out by one series system.

[5] = system: cotton bollworm; test: Insecticidal test on cotton bollworm; assay type: in vivo; settings: Helicoverpa armigera, 144 h
Protocol: A wettable powder prepared in accordance with Formulation Example 2 was diluted with water to a concentration of an active ingredient of 500 ppm. Cabbage leaves were dipped in this solution and dried in air and then put in a plastic cup having a capacity of 60 mL. Five hatched larvae of cotton bollworm were released in the cup, and the cup was lidded and placed in a thermostatic chamber at 25° C. for 6 days, and the number of dead larvae were assessed for calculation of the mortality by Equation 2. The test was carried out by two series system.

[6] = 500 ppm active ingredient, soybean seedlings with imago mites dipped, 25° C., 13 days
[7] = 500 ppm active ingredient, cabbage leaves dipped, second-instar larvae, 25° C., 6 days, read-out: mortality
[8] = 500 ppm active ingredient, cabbage leaves dipped, hatched larvae, 25° C., 6 days, read-out: mortality

Cc1cc(F)c(-n2nc(OCC(F)(F)C(F)(F)F)cc2NC(=O)C(F)(F)F)cc1SCC(F)(F)F [1-29, 1-{2-fluoro-4-methyl-5-(2,2,2-trifluoroethylthio)phenyl}-3-(2,2,3,3,3-pentafluoropropoxy)-5-trifluoroacetylaminopyrazole]
≥ 90%: mortality at 500 ppm [1] | mortality at 500 ppm ([2]; in Brassica oleracea) | mortality at 500 ppm [3] | pest or weed control at 500 ppm [4, 6]

Cc1cc(F)c(-n2nc(OCC(F)(F)C(F)(F)F)cc2C)cc1SCC(F)(F)F [1-91, 1-{2-fluoro-4-methyl-5-(2,2,2-trifluoroethylthio)phenyl}-5-methyl-3-(2,2,3,3,3-pentafluoropropoxy)pyrazole]
≥ 90%: mortality at 500 ppm [1] | mortality at 500 ppm ([2]; in Brassica oleracea) | mortality at 500 ppm [3] | pest or weed control at 500 ppm [4, 6]

Cc1cc(F)c(-n2nc(OCC(F)(F)C(F)(F)F)cc2C#N)cc1SCC(F)(F)F [1-133, 5-cyano-1-{2-fluoro-4-methyl-5-(2,2,2-trifluoroethylthio)phenyl}-3-(2,2,3,3,3-pentafluoropropoxy)pyrazole]
≥ 90%: mortality at 500 ppm [1] | mortality at 500 ppm ([2]; in Brassica oleracea) | mortality at 500 ppm [3] | pest or weed control at 500 ppm [4, 6]

CNc1cc(OC(F)(F)C(F)C(F)(F)F)nn1-c1cc(SCC(F)(F)F)c(C)cc1F (stereo not drawn) [1-186, 1-{2-fluoro-4-methyl-5-(2,2,2-trifluoroethylthio)phenyl}-3-(1,1,2,3,3,3-hexafluoropropoxy)-5-methylaminopyrazole]
≥ 90%: mortality at 500 ppm [1] | mortality at 500 ppm ([2]; in Brassica oleracea) | mortality at 500 ppm [3] | pest or weed control at 500 ppm [4, 6]

CC(=O)Nc1cc(OC(F)(F)C(F)(F)C(F)(F)F)nn1-c1cc([S+]([O-])CC(F)(F)F)c(C)cc1F (stereo not drawn) [1-268, 5-acetylamino-1-{2-fluoro-4-methyl-5-(2,2,2-trifluoroethylsulfinyl)phenyl}-3-(1,1,2,2,3,3,3-heptafluoropropoxy)pyrazole]
≥ 90%: mortality at 500 ppm [2, 7] | mortality at 500 ppm [5, 8] | pest or weed control at 500 ppm [4]

C#CCNc1cc(OC(F)(F)C(F)OC(F)(F)C(F)(F)C(F)(F)F)nn1-c1cc([S+]([O-])CC(F)(F)F)c(C)cc1F (stereo not drawn) [1-358, 1-{2-fluoro-4-methyl-5-(2,2,2-trifluoroethylsulfinyl)phenyl}-5-(2-propynylamino)-3-{1,1,2-trifluoro-2-(heptafluoropropoxy)ethoxy}pyrazole]
≥ 90%: mortality at 500 ppm [2, 7] | mortality at 500 ppm [5, 8]

CC(=O)Nc1cc(OC(F)(F)C(F)OC(F)(F)C(F)(F)C(F)(F)F)nn1-c1cc(SCC(F)(F)F)c(C)cc1F (stereo not drawn) [1-370, 5-acetylamino-1-{2-fluoro-4-methyl-5-(2,2,2-trifluoroethylthio)phenyl}-3-{1,1,2-trifluoro-2-(heptafluoropropoxy)ethoxy}pyrazole]
≥ 90%: mortality at 500 ppm [2, 7] | mortality at 500 ppm [5, 8] | pest or weed control at 500 ppm [4]

CC(=O)Nc1cc(OC(F)(F)C(F)OC(F)(F)C(F)(F)C(F)(F)F)nn1-c1cc([S+]([O-])CC(F)(F)F)c(C)cc1F (stereo not drawn) [1-371, 5-acetylamino-1-{2-fluoro-4-methyl-5-(2,2,2-trifluoroethylsulfinyl)phenyl}-3-{1,1,2-trifluoro-2-(heptafluoropropoxy)ethoxy}pyrazole]
≥ 90%: mortality at 500 ppm [2, 7] | mortality at 500 ppm [5, 8] | pest or weed control at 500 ppm [4]

CC(=O)Nc1cc(OCC(F)(F)OC(F)(F)C(F)(F)OC(F)(F)F)nn1-c1cc(SCC(F)(F)F)c(C)cc1F [1-374, 5-acetylamino-3-[2,2-difluoro-2-{2-trifluoromethoxy-(1,1,2,2-tetrafluoroethoxy)}ethoxy]-1-{2-fluoro-4-methyl-5-(2,2,2-trifluoroethylthio)phenyl}pyrazole]
≥ 90%: mortality at 500 ppm ([2]; in Brassica oleracea) | mortality at 500 ppm ([5]; in Brassica oleracea) | pest or weed control at 500 ppm [4, 6]

CC(=O)Nc1cc(OCC(F)(F)OC(F)(F)C(F)(F)OC(F)(F)F)nn1-c1cc([S+]([O-])CC(F)(F)F)c(C)cc1F (stereo not drawn) [1-375, 5-acetylamino-3-[2,2-difluoro-2-{2-trifluoromethoxy-(1,1,2,2-tetrafluoroethoxy)}ethoxy]-1-{2-fluoro-4-methyl-5-(2,2,2-trifluoroethylsulfinyl)phenyl}pyrazole]
≥ 90%: mortality at 500 ppm ([2]; in Brassica oleracea) | mortality at 500 ppm ([5]; in Brassica oleracea) | pest or weed control at 500 ppm [4, 6]

CC(=O)Nc1cc(OC(F)(F)C(F)(F)C(F)(F)C(F)(F)C(F)(F)F)nn1-c1cc(SCC(F)(F)F)c(C)cc1F [1-488, 5-acetylamino-1-{2-fluoro-4-methyl-5-(2,2,2-trifluoroethylthio)phenyl}-3-(1,1,2,2,3,3,4,4,5,5,5-undecafluoropentyloxy)pyrazole]
≥ 90%: mortality at 500 ppm [2, 7] | mortality at 500 ppm [5, 8]

CC(=O)Nc1cc(OC(F)(F)C(F)(F)C(F)(F)C(F)(F)C(F)(F)F)nn1-c1cc([S+]([O-])CC(F)(F)F)c(C)cc1F (stereo not drawn) [1-489, 5-acetylamino-1-{2-fluoro-4-methyl-5-(2,2,2-trifluoroethylsulfinyl)phenyl}-3-(1,1,2,2,3,3,4,4,5,5,5-undecafluoropentyloxy)pyrazole]
≥ 90%: mortality at 500 ppm [2, 7] | mortality at 500 ppm [5, 8] | pest or weed control at 500 ppm [4]

Cc1cc(F)c(-n2nc(OC(F)(F)C(F)OC(F)(F)F)cc2C#N)cc1SCC(F)(F)F (stereo not drawn) [1-668, 5-cyano-1-{2-fluoro-4-methyl-5-(2,2,2-trifluoroethylthio)phenyl}-3-{1,1,2-trifluoro-2-(trifluoromethoxy)ethoxy}pyrazole]
≥ 90%: mortality at 500 ppm [1] | mortality at 500 ppm ([2]; in Brassica oleracea) | mortality at 500 ppm [3] | pest or weed control at 500 ppm [4, 6]

COc1cc(OC(F)(F)C(F)OC(F)(F)F)nn1-c1cc(SCC(F)(F)F)c(C)cc1F (stereo not drawn) [1-794, 1-{2-fluoro-4-methyl-5-(2,2,2-trifluoroethylthio)phenyl}-5-methoxy-3-{1,1,2-trifluoro-2-(trifluoromethoxy)ethoxy}pyrazole]
≥ 90%: mortality at 500 ppm [1] | mortality at 500 ppm ([2]; in Brassica oleracea) | mortality at 500 ppm [3] | pest or weed control at 500 ppm [4, 6]

Cc1cc(F)c(-n2nc(OC(F)(F)C(F)OC(F)(F)F)cc2C(F)F)cc1SCC(F)(F)F (stereo not drawn) [1-1531, 5-difluoromethyl-1-{2-fluoro-4-methyl-5-(2,2,2-trifluoroethylthio)phenyl}-3-{1,1,2-trifluoro-2-(trifluoromethoxy)ethoxy}pyrazole]
≥ 90%: mortality at 500 ppm [1] | mortality at 500 ppm ([2]; in Brassica oleracea) | mortality at 500 ppm [3] | pest or weed control at 500 ppm [4, 6]

Cc1cc(F)c(-n2nc(OC(F)(F)C(F)OC(F)(F)F)cc2CF)cc1SCC(F)(F)F (stereo not drawn) [1-1579, 1-{2-fluoro-4-methyl-5-(2,2,2-trifluoroethylthio)phenyl}-5-fluoromethyl-3-{1,1,2-trifluoro-2-(trifluoromethoxy)ethoxy}pyrazole]
≥ 90%: mortality at 500 ppm [1] | mortality at 500 ppm ([2]; in Brassica oleracea) | mortality at 500 ppm [3] | pest or weed control at 500 ppm [4, 6]

Cc1cc(F)c(-n2nc(OC(F)(F)C(F)OC(F)(F)F)cc2CF)cc1[S+]([O-])CC(F)(F)F (stereo not drawn) [1-1580, 1-{2-fluoro-4-methyl-5-(2,2,2-trifluoroethylsulfinyl)phenyl}-5-fluoromethyl-3-{1,1,2-trifluoro-2-(trifluoromethoxy)ethoxy}pyrazole]
≥ 90%: mortality at 500 ppm [1] | mortality at 500 ppm [3] | pest or weed control at 500 ppm [4, 6]
